Data on 26 molecules can be found in US12473296B2, “Perk inhibiting compounds” (HiberCell, Inc., priority 2019, dated 2025).

One assay deals with PERK (Homo sapiens (Human), UniProt Q9NZJ5). The experiment in a line: PERK cellular assay (TR-FRET, HEK293-EGFP-eIF2α cells, tunicamycin-induced ER stress). The class given is cell-based. To be noted: tunicamycin 2 hours, read-out: Cellular IC50 (μM) (EIF2a). In a few lines: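 After 2 h tunicamycin ([…]) stress following 30 min compound pretreatment at 37 °C, lysed HEK293-EGFP-eIF2α cells were read by TR-FRET. IC50 derived by 4-parameter logistic fitting of percent inhibition, DMSO-normalized, from 10-point 3-fold dilutions.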
PERK, sequence (Q9NZJ5 30-1116): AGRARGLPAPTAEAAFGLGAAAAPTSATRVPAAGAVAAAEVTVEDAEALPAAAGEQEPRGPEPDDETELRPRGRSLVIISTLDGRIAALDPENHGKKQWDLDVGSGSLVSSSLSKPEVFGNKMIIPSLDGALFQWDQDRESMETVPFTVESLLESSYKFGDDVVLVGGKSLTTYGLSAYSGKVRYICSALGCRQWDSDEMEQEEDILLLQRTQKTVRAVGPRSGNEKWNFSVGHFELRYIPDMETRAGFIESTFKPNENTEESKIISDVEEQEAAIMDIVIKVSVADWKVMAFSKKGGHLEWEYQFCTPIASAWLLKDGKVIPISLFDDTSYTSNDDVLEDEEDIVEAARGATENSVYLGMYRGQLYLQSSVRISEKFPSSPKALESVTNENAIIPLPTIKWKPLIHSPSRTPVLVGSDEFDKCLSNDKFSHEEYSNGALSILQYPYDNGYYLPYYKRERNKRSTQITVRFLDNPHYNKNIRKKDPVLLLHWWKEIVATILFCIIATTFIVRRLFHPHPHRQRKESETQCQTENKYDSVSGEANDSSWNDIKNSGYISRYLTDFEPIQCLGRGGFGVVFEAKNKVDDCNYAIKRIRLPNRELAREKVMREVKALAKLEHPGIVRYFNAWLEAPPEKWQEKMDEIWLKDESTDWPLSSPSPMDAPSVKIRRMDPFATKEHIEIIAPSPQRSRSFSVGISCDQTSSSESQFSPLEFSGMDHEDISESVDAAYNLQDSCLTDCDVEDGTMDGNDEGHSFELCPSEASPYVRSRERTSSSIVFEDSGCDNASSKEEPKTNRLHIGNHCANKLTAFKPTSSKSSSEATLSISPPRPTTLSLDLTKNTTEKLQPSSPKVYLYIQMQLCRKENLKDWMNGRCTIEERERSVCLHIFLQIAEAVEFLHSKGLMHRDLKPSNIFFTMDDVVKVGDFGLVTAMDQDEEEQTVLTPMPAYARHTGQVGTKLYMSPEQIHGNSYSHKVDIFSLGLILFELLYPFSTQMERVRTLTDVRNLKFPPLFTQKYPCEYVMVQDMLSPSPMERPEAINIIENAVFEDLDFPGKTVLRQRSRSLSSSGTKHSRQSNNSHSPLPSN

In assay [1] the target is EIF2AK3 (PERK) catalytic domain (amino acids 536-1116) (Homo sapiens (Human), UniProt Q9NZJ5). The experiment in a line: PERK in vitro activity assay (isolated), TR-FRET kinase assay. To be noted: isolated PERK enzyme, 1.5 μM ATP, GFP-eIF2a substrate; read-out: Biochemical IC50. An excerpt: PERK In Vitro Activity Assay (Isolated):
In vitro Inhibition of PERK Enzyme Activity (isolated) Recombinant human EIF2AK2 (PKR) catalytic domain (amino acids 252-551), EIF2AK3 (PERK) catalytic domain (amino acids 536-1116), GFP-eIF2a substrate, and Terbium-labelled phospho-eIF2a antibody is obtained (Invitrogen, Carlsbad, CA).
Express and purify HIS-SUMO-GCN2 catalytic domain (amino acids 584-1019) from E. coli. Perform TR-FRET kinase assays in the absence or presence of inhibitors in a reaction buffer consisting of 50 mM HEPES, pH 7.5, 10 mM MgCb, 1.0 mM EGTA, and 0.01% Brij-35, and 100-200 nM GFP-eIF2a substrate. […] Add test compound, initiate the reaction by addition of enzyme, and incubate at room temperature for 45 minutes. Stop the reaction by addition of EDTA to a final concentration of 10 mM, add Terbium-labelled phospho-eIF2a antibody at a final concentration of 2 nM, and incubate for 90 minutes. Monitor the resulting fluorescence in an EnVison® Multilabel reader (PerkinElmer, Waltham, MA). Determine TR-FRET ratios and the resulting IC50 values using a 4-parameter nonlinear logistic equation as shown: Y=(A+((B−A)/(1+((C/x)[…])))) where, Y=% specific inhibition, A=Bottom of the curve, B=Top of the curve, C=absolute IC50 (concentration causing 50% inhibition), and D=hill slope.

EIF2AK3 (PERK) catalytic domain (amino acids 536-1116), sequence (Q9NZJ5 536-1116): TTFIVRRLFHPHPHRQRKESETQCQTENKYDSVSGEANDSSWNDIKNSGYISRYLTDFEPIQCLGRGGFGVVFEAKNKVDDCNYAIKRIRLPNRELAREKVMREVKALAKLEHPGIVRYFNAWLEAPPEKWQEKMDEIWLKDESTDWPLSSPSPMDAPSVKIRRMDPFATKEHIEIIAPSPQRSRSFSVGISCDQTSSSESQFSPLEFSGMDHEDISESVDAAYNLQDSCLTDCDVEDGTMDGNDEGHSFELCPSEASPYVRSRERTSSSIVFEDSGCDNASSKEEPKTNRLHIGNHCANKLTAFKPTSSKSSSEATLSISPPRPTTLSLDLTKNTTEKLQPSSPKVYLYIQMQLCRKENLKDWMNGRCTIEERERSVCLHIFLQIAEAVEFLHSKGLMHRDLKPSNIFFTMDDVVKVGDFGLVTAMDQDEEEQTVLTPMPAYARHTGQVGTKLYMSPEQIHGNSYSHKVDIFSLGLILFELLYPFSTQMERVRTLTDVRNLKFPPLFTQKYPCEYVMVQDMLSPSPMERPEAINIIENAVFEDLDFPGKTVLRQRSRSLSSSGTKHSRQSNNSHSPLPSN

As a reminder, the IC50 is the point on the concentration scale where inhibition reaches its midpoint. In the case of `CC(C)NC(=O)c1cc(-c2ccc(NC(=O)C(O)c3cc(F)cc(F)c3)cc2F)cnc1N` (stereo not shown) [Example 33, 2-amino-5-(4-(2-(3,5-difluorophenyl)-2-hydroxyacetamido)-2-fluorophenyl)-N-isopropylnicotinamide], the concentration for half-maximal inhibition (IC50) fell in the range of 0.251 to 0.5 µM at PERK and 101 to 250 nM in assay [1].
On to `CC(C)NC(=O)c1cc(-c2ccc(NC(=O)C(O)c3cc(F)cc(F)c3)cc2C(F)(F)F)cnc1N` (stereo not shown) [Example 36, 2-amino-5-(4-(2-(3,5-difluorophenyl)-2-hydroxyacetamido)-2-(trifluoromethyl)phenyl)-N-isopropylnicotinamide], for which the values for the IC50 (at PERK; in assay [1]) were 0.051 to 0.1 µM and 1 to 25 nM, respectively.
As to `CC(C)NC(=O)c1cc(-c2ccc(NC(=O)C(O)c3cc(F)cc(F)c3)cc2C(F)(F)F)cnc1N` (stereo not shown) [Example 37, 2-amino-5-(4-(2-(3,5-difluorophenyl)-2-hydroxyacetamido)-2-(trifluoromethyl)phenyl)-N-isopropylnicotinamide], the figures for the IC50 (on PERK; in assay [1]) were 0.251 to 0.5 µM and 101 to 250 nM, respectively.
The like results for `Cc1cc(NC(=O)C(O)c2cc(F)cc(F)c2)ccc1-c1cnc(N)c(C(=O)NC(C)C)c1` (stereo not shown) [Example 40, 2-amino-5-(4-(2-(3,5-difluorophenyl)-2-hydroxyacetamido)-2-methylphenyl)-N-isopropylnicotinamide] were, in that order, 0.026 to 0.05 µM and 1 to 25 nM.
`Cc1cc(NC(=O)C(O)c2cc(F)cc(F)c2)ccc1-c1cnc(N)c(C(=O)O)c1` (stereo not shown) [Example 41, 2-amino-5-(4-(2-(3,5-difluorophenyl)-2-hydroxyacetamido)-2-methylphenyl) nicotinic acid]: the half-maximal inhibitory concentration (IC50) at PERK is above 5 µM; in assay [1], 101 to 250 nM.
Consider `Cc1cc(NC(=O)C(O)c2cc(F)cc(F)c2)ccc1-c1cnc(N)c(C(=O)NC2CNC2)c1` (stereo not shown) [Example 44, 2-amino-N-(azetidin-3-yl)-5-(4-(2-(3,5-difluorophenyl)-2-hydroxyacetamido)-2-methylphenyl) nicotinamide], for which the concentration for half-maximal inhibition (IC50) on PERK lay within 3 to 4 µM; in assay [1], 1 to 25 nM.
In the same order, the values of `Cc1cc(NC(=O)C(O)c2cc(F)cc(F)c2)ccc1-c1cnc(N)c(C(=O)NC2CNC2)c1` (stereo not shown) [Example 45, 2-amino-N-(azetidin-3-yl)-5-(4-(2-(3,5-difluorophenyl)-2-hydroxyacetamido)-2-methylphenyl) nicotinamide] are above 5 µM and 51 to 100 nM.
In the case of `Cc1cc(NC(=O)C(O)c2cc(F)cc(F)c2)ccc1-c1cnc(N)c(C(=O)NC2CN(C)C2)c1` (stereo not shown) [Example 46, 2-amino-5-(4-(2-(3,5-difluorophenyl)-2-hydroxyacetamido)-2-methylphenyl)-N-(1-methylazetidin-3-yl)nicotinamide], the IC50 at PERK fell in the range of 0.501 to 1 µM; in assay [1] it was 1 to 25 nM.
For the molecule `Cc1cc(NC(=O)C(O)c2cc(F)cc(F)c2)ccc1-c1cnc(N)c(C(=O)NC2CN(C)C2)c1` (stereo not shown) [Example 47, 2-amino-5-(4-(2-(3,5-difluorophenyl)-2-hydroxyacetamido)-2-methylphenyl)-N-(1-methylazetidin-3-yl)nicotinamide], the concentration for half-maximal inhibition (IC50) on PERK fell in the range of 1 to 2 µM; in assay [1], 1 to 25 nM.
Take `Cc1cc(NC(=O)C(O)c2cc(F)cc(F)c2)ccc1-c1cnc(N)c(C(=O)NCCO)c1` (stereo not shown) [Example 56, 2-amino-5-(4-(2-(3,5-difluorophenyl)-2-hydroxyacetamido)-2-methylphenyl)-N-(2-hydroxyethyl) nicotinamide]: the IC50 lay within 0.251 to 0.5 µM at PERK and 1 to 25 nM in assay [1].
On to `Cc1cc(NC(=O)C(O)c2cc(F)cc(F)c2)ccc1-c1cnc(N)c(C(=O)NCCO)c1` (stereo not shown) [Example 57, 2-amino-5-(4-(2-(3,5-difluorophenyl)-2-hydroxyacetamido)-2-methylphenyl)-N-(2-hydroxyethyl) nicotinamide], for which the half-maximal inhibitory concentration (IC50) on PERK was in the range of 2 to 3 µM; in assay [1], 101 to 250 nM.
The like results for `Cc1cccc(C(O)C(=O)Nc2ccc(-c3cnc(N)c(C(=O)NC(C)C)c3)c(C)c2)c1` (stereo not shown) [Example 66, 2-amino-5-(4-(2-hydroxy-2-(m-tolyl)acetamido)-2-methylphenyl)-N-isopropylnicotinamide] were, in that order, 1 to 2 µM and 101 to 250 nM.
As for `Cc1cccc(C(O)C(=O)Nc2ccc(-c3cnc(N)c(C(=O)NC(C)C)c3)c(C)c2)c1` (stereo not shown) [Example 67, 2-amino-5-(4-(2-hydroxy-2-(m-tolyl)acetamido)-2-methylphenyl)-N-isopropylnicotinamide], the IC50 was 0.051 to 0.1 µM at PERK and 1 to 25 nM in assay [1].
For `Cc1cc(NC(=O)C(O)c2cccc(Cl)c2)ccc1-c1cnc(N)c(C(=O)NC(C)C)c1` (stereo not shown) [Example 68, 2-amino-5-(4-(2-(3-chlorophenyl)-2-hydroxyacetamido)-2-methylphenyl)-N-isopropylnicotinamide], the IC50 at PERK lay within 0.501 to 1 µM; in assay [1], 101 to 250 nM.
Take `Cc1cc(NC(=O)C(O)c2cccc(Cl)c2)ccc1-c1cnc(N)c(C(=O)NC(C)C)c1` (stereo not shown) [Example 69, 2-amino-5-(4-(2-(3-chlorophenyl)-2-hydroxyacetamido)-2-methylphenyl)-N-isopropylnicotinamide]: the IC50 on PERK was in the range of 0.026 to 0.05 µM; in assay [1], 1 to 25 nM.
Take `Cc1cc(NC(=O)C(O)c2cccc3c2OCC3)ccc1-c1cnc(N)c(C(=O)NC(C)C)c1` (stereo not shown) [Example 74, 2-amino-5-(4-(2-(2,3-dihydrobenzofuran-7-yl)-2-hydroxyacetamido)-2-methylphenyl)-N-isopropylnicotinamide]: the IC50 on PERK lay within 1 to 2 µM; in assay [1] it was 251 to 500 nM.
In the case of `Cc1cc(NC(=O)C(O)c2cccc3c2OCC3)ccc1-c1cnc(N)c(C(=O)NC(C)C)c1` (stereo not shown) [Example 75, 2-amino-5-(4-(2-(2,3-dihydrobenzofuran-7-yl)-2-hydroxyacetamido)-2-methylphenyl)-N-isopropylnicotinamide], the IC50 on PERK lay within 1 to 2 µM; in assay [1], 101 to 250 nM.
In the case of `Cc1cc(NC(=O)C(O)c2cccc3cnn(C)c23)ccc1-c1cnc(N)c(C(=O)NC(C)C)c1` (stereo not shown) [Example 76, 2-amino-5-(4-(2-hydroxy-2-(1-methyl-1H-indazol-7-yl)acetamido)-2-methylphenyl)-N-isopropylnicotinamide], the IC50 fell in the range of 3 to 4 µM at PERK and 251 to 500 nM in assay [1].
Regarding `Cc1cc(NC(=O)C(O)c2cccc3cnn(C)c23)ccc1-c1cnc(N)c(C(=O)NC(C)C)c1` (stereo not shown) [Example 77, 2-amino-5-(4-(2-hydroxy-2-(1-methyl-1H-indazol-7-yl)acetamido)-2-methylphenyl)-N-isopropylnicotinamide], the IC50 at PERK lay in the range of 3 to 4 µM; in assay [1], 501 to 1000 nM.
As to `Cc1nc(C(O)C(=O)Nc2ccc(-c3cnc(N)c(C(=O)NC(C)C)c3)c(C)c2)cs1` (stereo not shown) [Example 78, 2-amino-5-(4-(2-hydroxy-2-(2-methylthiazol-4-yl)acetamido)-2-methylphenyl)-N-isopropylnicotinamide], the IC50 on PERK was above 5 µM; in assay [1], 1000 to 2000 nM.
Take `Cc1nc(C(O)C(=O)Nc2ccc(-c3cnc(N)c(C(=O)NC(C)C)c3)c(C)c2)cs1` (stereo not shown) [Example 79, 2-amino-5-(4-(2-hydroxy-2-(2-methylthiazol-4-yl)acetamido)-2-methylphenyl)-N-isopropylnicotinamide]: the values for the IC50 (at PERK; in assay [1]) were above 5 µM and 1000 to 2000 nM, respectively.
Regarding `CC(C)NC(=O)c1cc(-c2ccc(NC(=O)C(O)c3cc(F)cc(F)c3)cc2)cnc1N` (stereo not shown) [Example 80, 2-amino-5-(4-(2-(3,5-difluorophenyl)-2-hydroxyacetamido)phenyl)-N-isopropylnicotinamide], the IC50 at PERK was in the range of 0.251 to 0.5 µM; in assay [1], 1 to 25 nM.
For the molecule `CC(C)NC(=O)c1cc(-c2ccc(NC(=O)C(O)c3cc(F)cc(F)c3)cc2)cnc1N` (stereo not shown) [Example 81, 2-amino-5-(4-(2-(3,5-difluorophenyl)-2-hydroxyacetamido)phenyl)-N-isopropylnicotinamide], the IC50 fell in the range of 4 to 5 µM on PERK and 101 to 250 nM in assay [1].
Turning to `CCNC(=O)c1cc(-c2ccc(NC(=O)C(O)c3cc(F)cc(F)c3)cc2Cl)cnc1N` (stereo not shown) [Example 82, 2-amino-5-(2-chloro-4-(2-(3,5-difluorophenyl)-2-hydroxyacetamido)phenyl)-N-ethylnicotinamide], the figures for the IC50 (on PERK; in assay [1]) were 0.026 to 0.05 µM and 1 to 25 nM, respectively.
The like results for `CCNC(=O)c1cc(-c2ccc(NC(=O)C(O)c3cc(F)cc(F)c3)cc2Cl)cnc1N` (stereo not shown) [Example 83, 2-amino-5-(2-chloro-4-(2-(3,5-difluorophenyl)-2-hydroxyacetamido)phenyl)-N-ethylnicotinamide] were, in that order, 0.251 to 0.5 µM and 1 to 25 nM.
The like results for `Nc1ncc(-c2ccc(NC(=O)C(O)c3cc(F)cc(F)c3)cc2Cl)cc1C(=O)NC1CC1` (stereo not shown) [Example 84, 2-amino-5-(2-chloro-4-(2-(3,5-difluorophenyl)-2-hydroxyacetamido)phenyl)-N-cyclopropyl-nicotinamide] were, in that order, 0.001 to 0.025 µM and 1 to 25 nM.
